In article PMC9596378, “Discovery and molecular basis of subtype-selective cyclophilin inhibitors” (Nature Chemical Biology, 2022):
Read-outs that look alike come from different tables or passages of the source.

Experiments:
CypB = molecular target: T1, CypB (Homo sapiens, UniProt P23284); assay: biochemical
T1 construct: PPIB (UniProtKB Entry P23284: residues 34–216); His6 with TEV site (2BT vector leader) (N); made in house; host or cells: E. coli BL21(DE3)
Outline: (§1)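 Chymotrypsin-coupled cis–trans isomerization of Suc-AAPF-AMC (5 µM) catalysed by 5 nM cyclophilin, run cold (2–3 °C) at pH 7.3 with 5 min compound preincubation.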

NKTR = molecular target: T2, NKTR (Homo sapiens, UniProt P30414); assay: Chymotrypsin coupled prolyl-isomerase assay; format: biochemical
T2 construct: NKTR (UniProtKB Entry P30414: residues 7–179); host or cells: E. coli BL21(DE3)
T2 sequence (P30414 7-179): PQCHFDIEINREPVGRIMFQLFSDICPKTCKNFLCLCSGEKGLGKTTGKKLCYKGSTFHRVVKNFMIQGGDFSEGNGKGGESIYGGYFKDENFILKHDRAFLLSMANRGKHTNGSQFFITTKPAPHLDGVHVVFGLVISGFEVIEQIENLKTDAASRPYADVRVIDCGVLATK
Experimental: Adapting a previously described protocol[51], with an Agilent Bravo Velocity 11 with a 384ST head, 90 µL assay buffer (25 mM HEPES pH 7.3, 100 mM NaCl, 0.01% Triton X-100) containing 5.28 nM cyclophilin was added into a flat, clear-bottom, black 384-well plate pre-chilled in a Corning CoolBox at 2–3 °C. Five microliters of compound pre-dissolved in 5% DMSO/assay buffer was then added to appropriate wells and incubated at 2–3 °C for 5 min. Five microliters of 0.5 mM α-chymotrypsin from bovine pancreas (Type II, lyophilized powder, Millipore-Sigma) in 20% 1 mM HCl/Assay Buffer was then added to each well and incubated at 2–3 °C for 5 min. […] Using the internal liquid handling system of the FLIPR, 1 µL 0.5 mM Suc-AAPF-AMC (Chymotrypsin Substrate II, Millipore-Sigma) dissolved in 0.55 M LiCl/2,2,2-trifluoroethanol was added to each well, which was then mixed for 5 s, followed by immediate fluorescence measurements every 1 s for 330 s using a 360–380 nm excitation LED module and a 400–460 nm emission filter. Final concentrations of the plate include 5 nM cyclophilin, 0.25% DMSO, 25 µM α-chymotrypsin, 5 µM Suc-AAPF-AMC. Raw fluorescence data was analyzed by non-linear regression analysis with Prism v.9 by fitting one-phase association curves to each well. Analyses were halted after the calculated maximum fluorescent value owing to observed fluorescent bleaching during the sustained fluorescent plateau. Rate constants calculated for each well (s^−1) were then normalized to substrate only (no prolyl-isomerase) and enzyme + substrate only controls. IC50 values were calculated as the value at which 50% inhibition was achieved on the non-linear regression fitted curve of each compound.

CypA = molecular target: T3, CypA (Homo sapiens, UniProt P62937); assay: Chymotrypsin coupled prolyl-isomerase assay; format: biochemical
T3 construct: PPIA (UniProtKB Entry P62937: residues 1–165); made in house; host or cells: E. coli BL21(DE3)
Outline: as §1

CypG = molecular target: T4, CypG (Homo sapiens, UniProt Q13427); assay: Chymotrypsin coupled prolyl-isomerase assay; format: biochemical
T4 construct: PPIG (UniProtKB Entry Q13427: residues 1–179); His6 with thrombin site (pET28a LIC leader) (N); host or cells: E. coli BL21(DE3)
T4 sequence (Q13427 1-179): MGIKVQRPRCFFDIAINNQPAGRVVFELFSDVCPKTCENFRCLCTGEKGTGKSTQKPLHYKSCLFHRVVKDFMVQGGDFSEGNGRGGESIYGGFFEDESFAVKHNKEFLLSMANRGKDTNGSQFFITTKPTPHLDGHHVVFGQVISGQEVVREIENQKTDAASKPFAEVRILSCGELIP
Outline: as §1

CypC = molecular target: T5, CypC (Homo sapiens, UniProt P45877); assay: Chymotrypsin coupled prolyl-isomerase assay; format: biochemical
T5 construct: PPIC (UniProtKB Entry P45877: residues 24–212); host or cells: E. coli BL21(DE3)
Outline: as §1

CypE = molecular target: T6, CypE (Homo sapiens, UniProt Q9UNP9); assay: Chymotrypsin coupled prolyl-isomerase assay; format: biochemical
T6 construct: PPIE (UniProtKB Entry Q9UNP9: residues 131–301); host or cells: E. coli BL21(DE3)
Outline: as §1

CypH = molecular target: T7, CypH (Homo sapiens, UniProt O43447); assay: Chymotrypsin coupled prolyl-isomerase assay; format: biochemical
T7 construct: PPIH (UniProtKB Entry O43447: residues 1–177); His6 with TEV site (2BT vector leader) (N); made in house; host or cells: E. coli BL21(DE3)
Outline: as §1

Cyp40 = Cyp40 (Homo sapiens, UniProt Q08752); assay: Chymotrypsin coupled prolyl-isomerase assay
Outline: as §1

[1] = CypB (comparator for CypB E121S), read-out: Mutant Cyclophilin Prolyl Isomerase Inhibition IC50 Values, CypB
[2] = Independent replicate 2, read-out: IC50 CypB
[3] = Independent replicate 3, read-out: IC50 CypB
[4] = Independent replicate 4, read-out: IC50 CypB
[5] = prolyl-isomerase inhibition, 5 nM cyclophilin, read-out: IC50 CypB
[6] = prolyl-isomerase inhibition, read-out: IC50 CypB
[7] = wild-type CypB, read-out: Wild-Type Cyclophilin Prolyl Isomerase Inhibition IC50 Values, CypB
[8] = Independent replicate 1, read-out: IC50 NKTR
[9] = Independent replicate 2, read-out: IC50 NKTR
[10] = Independent replicate 3, read-out: IC50 NKTR
[11] = Independent replicate 4, read-out: IC50 NKTR
[12] = prolyl-isomerase inhibition, 5 nM cyclophilin, read-out: IC50 NKTR
[13] = wild-type NKTR, read-out: Wild-Type Cyclophilin Prolyl Isomerase Inhibition IC50 Values, NKTR
[14] = Independent replicate 2, read-out: IC50 CypA
[15] = Independent replicate 3, read-out: IC50 CypA
[16] = Independent replicate 4, read-out: IC50 CypA
[17] = prolyl-isomerase inhibition, 5 nM cyclophilin, read-out: IC50 CypA
[18] = Independent replicate 1, read-out: IC50 CypG
[19] = Independent replicate 2, read-out: IC50 CypG
[20] = Independent replicate 3, read-out: IC50 CypG
[21] = Independent replicate 4, read-out: IC50 CypG
[22] = prolyl-isomerase inhibition, 5 nM cyclophilin, read-out: IC50 CypG
[23] = wild-type CypG, read-out: Wild-Type Cyclophilin Prolyl Isomerase Inhibition IC50 Values, CypG
[24] = Independent replicate 1, read-out: IC50 CypC
[25] = Independent replicate 2, read-out: IC50 CypC
[26] = Independent replicate 3, read-out: IC50 CypC
[27] = Independent replicate 4, read-out: IC50 CypC
[28] = prolyl-isomerase inhibition, 5 nM cyclophilin, read-out: IC50 CypC
[29] = wild-type CypC, read-out: Wild-Type Cyclophilin Prolyl Isomerase Inhibition IC50 Values, CypC
[30] = Independent replicate 1, read-out: IC50 CypE
[31] = Independent replicate 2, read-out: IC50 CypE
[32] = Independent replicate 3, read-out: IC50 CypE
[33] = Independent replicate 4, read-out: IC50 CypE
[34] = wild-type CypE, read-out: Wild-Type Cyclophilin Prolyl Isomerase Inhibition IC50 Values, CypE
[35] = Independent replicate 1, read-out: IC50 CypH
[36] = Independent replicate 2, read-out: IC50 CypH
[37] = Independent replicate 3, read-out: IC50 CypH
[38] = Independent replicate 4, read-out: IC50 CypH
[39] = prolyl-isomerase inhibition, 5 nM cyclophilin, read-out: IC50 CypH
[40] = wild-type CypH, read-out: Wild-Type Cyclophilin Prolyl Isomerase Inhibition IC50 Values, CypH
[41] = IC50 Cyp40, Independent replicate 1
[42] = IC50 Cyp40, Independent replicate 2
[43] = IC50 Cyp40, Independent replicate 3
[44] = IC50 Cyp40, Independent replicate 4
[45] = Wild-Type Cyclophilin Prolyl Isomerase Inhibition IC50 Values, Cyp40, wild-type Cyp40

T7 sequence (O43447 whole entry, the tested form may be a part): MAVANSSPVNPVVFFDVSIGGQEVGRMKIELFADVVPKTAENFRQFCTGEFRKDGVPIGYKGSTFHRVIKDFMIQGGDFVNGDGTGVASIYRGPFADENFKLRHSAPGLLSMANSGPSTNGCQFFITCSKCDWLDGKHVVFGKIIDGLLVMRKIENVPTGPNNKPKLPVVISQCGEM
T1 sequence (P23284 34-216): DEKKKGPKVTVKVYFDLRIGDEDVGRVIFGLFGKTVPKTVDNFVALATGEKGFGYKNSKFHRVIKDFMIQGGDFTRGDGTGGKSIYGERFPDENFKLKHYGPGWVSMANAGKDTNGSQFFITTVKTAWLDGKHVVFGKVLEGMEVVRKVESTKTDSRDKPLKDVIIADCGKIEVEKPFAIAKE
T5 sequence (P45877 24-212): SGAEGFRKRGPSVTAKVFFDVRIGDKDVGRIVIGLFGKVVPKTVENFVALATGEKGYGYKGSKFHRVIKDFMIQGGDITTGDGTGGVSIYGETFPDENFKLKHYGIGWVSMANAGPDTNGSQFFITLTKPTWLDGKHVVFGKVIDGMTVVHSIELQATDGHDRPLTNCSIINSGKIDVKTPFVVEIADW
T6 sequence (Q9UNP9 131-301): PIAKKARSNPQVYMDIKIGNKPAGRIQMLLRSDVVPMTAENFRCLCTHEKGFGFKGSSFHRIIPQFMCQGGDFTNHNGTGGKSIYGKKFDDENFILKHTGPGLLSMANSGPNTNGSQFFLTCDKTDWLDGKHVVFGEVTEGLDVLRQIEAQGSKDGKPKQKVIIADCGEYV
T3 sequence (P62937 whole entry, the tested form may be a part): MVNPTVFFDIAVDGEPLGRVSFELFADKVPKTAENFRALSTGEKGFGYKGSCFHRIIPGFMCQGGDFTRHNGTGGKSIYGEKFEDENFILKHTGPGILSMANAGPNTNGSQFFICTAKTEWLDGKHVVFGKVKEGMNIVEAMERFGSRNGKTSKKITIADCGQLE
Cyp40, sequence (Q08752 1-183): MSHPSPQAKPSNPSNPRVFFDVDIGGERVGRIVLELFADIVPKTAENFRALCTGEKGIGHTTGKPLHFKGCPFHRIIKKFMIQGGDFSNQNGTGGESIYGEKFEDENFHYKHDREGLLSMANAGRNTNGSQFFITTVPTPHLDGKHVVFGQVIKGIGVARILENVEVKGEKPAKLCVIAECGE

Compound `NCCOCCNC(=O)[C@@H]1CCNC(=O)/C=C/C(=O)N2CCC[C@](Cc3ccccc3)(C2)C(=O)N[C@@H](Cc2ccc(-c3ccc(CC(C(=O)O)C(=O)O)cc3)cc2)C(=O)NCc2ccccc2CC(=O)N1` [Compound B52] has an IC50 (CypB; [1]) of 0.2 µM, an IC50 (CypB; Independent replicate 1, read-out: IC50 CypB) of 0.2 ± 0.05 µM and an IC50 (CypB; [2]) of 0.19 ± 0.03 µM. It also gave an IC50 (CypB; [3]) of 0.21 ± 0.04 µM, an IC50 (CypB; [4]) of 0.2 ± 0.1 µM and an IC50 (CypB; [5]) of 0.21 µM. The IC50 (CypB; [6]) was 0.21 µM, the IC50 (CypB; [7]) was 0.21 µM and the IC50 (NKTR; [8]) was > 100 µM. The IC50 (NKTR; [9]) was > 100 µM, the IC50 (NKTR; [10]) was > 100 µM and the IC50 (NKTR; [11]) was > 100 µM. The IC50 (NKTR; [12]) was > 100 µM, the IC50 (NKTR; prolyl-isomerase inhibition, read-out: IC50 NKTR) was > 100 µM and the IC50 (NKTR; [13]) was > 100 µM. The IC50 (CypA; [14]) was 0.9 ± 0.1 µM, the IC50 (CypA; [15]) was 0.9 ± 0.3 µM and the IC50 (CypA; [16]) was 1.4 ± 0.5 µM. The IC50 (CypA; [17]) was 1.1 µM, the IC50 (CypG; [18]) was ~80 µM and the IC50 (CypG; [19]) was > 100 µM. The IC50 (CypG; [20]) was ~80 µM, the IC50 (CypG; [21]) was > 100 µM and the IC50 (CypG; [22]) was > 100 µM. The IC50 (CypG; prolyl-isomerase inhibition, read-out: IC50 CypG) was > 100 µM, the IC50 (CypG; [23]) was > 100 µM and the IC50 (CypC; [24]) was > 100 µM. The IC50 (CypC; [25]) was > 100 µM, the IC50 (CypC; [26]) was > 100 µM and the IC50 (CypC; [27]) was > 100 µM. The IC50 (CypC; [28]) was > 100 µM, the IC50 (CypC; prolyl-isomerase inhibition, read-out: IC50 CypC) was > 100 µM and the IC50 (CypC; [29]) was > 100 µM. The IC50 (CypE; [30]) was 0.21 ± 0.08 µM, the IC50 (CypE; [31]) was 0.4 ± 0.1 µM and the IC50 (CypE; [32]) was 0.3 ± 0.1 µM. The IC50 (CypE; [33]) was 0.36 ± 0.07 µM, the IC50 (CypE; [34]) was 0.31 µM and the IC50 (CypH; [35]) was > 100 µM. The IC50 (CypH; [36]) was > 100 µM, the IC50 (CypH; [37]) was > 100 µM and the IC50 (CypH; [38]) was > 100 µM. For the same compound, the IC50 (CypH; [39]) was > 100 µM, the IC50 (CypH; prolyl-isomerase inhibition, read-out: IC50 CypH) was > 100 µM and the IC50 (CypH; [40]) was > 100 µM. It also gave an IC50 (Cyp40; [41]) of 13 ± 5 µM, an IC50 (Cyp40; [42]) of 30 ± 20 µM and an IC50 (Cyp40; [43]) of 20 ± 10 µM. It also gave an IC50 (Cyp40; [44]) of 20 ± 10 µM and an IC50 (Cyp40; [45]) of 22 µM.
With `C[N+]1=C(C=CC=CC=C2N(CCCCCC(=O)NCCNC(=O)C3CCNC(=O)C=CC(=O)N4CCCC(Cc5ccccc5)(C4)C(=O)NC(Cc4ccc(-c5ccc(C(CC(=O)O)CC(=O)O)cc5)cc4)C(=O)NCc4ccccc4CC(=O)N3)c3ccccc3C2(C)C)C(C)(C)c2ccccc21` (stereo not shown) [Compound B53-Cy5] the IC50 (CypB; [5]) was ~1.5 µM, the IC50 (CypB; [7]) was 1.5 µM and the IC50 (NKTR; [13]) was > 2 µM. The IC50 (CypA; wild-type CypA, read-out: Wild-Type Cyclophilin Prolyl Isomerase Inhibition IC50 Values, CypA) was 0.3 µM, the IC50 (CypG; [23]) was > 2 µM and the IC50 (CypC; [29]) was > 2 µM. For the same compound, the IC50 (CypE; [34]) was 1.1 µM, the IC50 (CypH; [40]) was > 2 µM and the IC50 (Cyp40; read-out: Wild-Type Cyclophilin Prolyl Isomerase Inhibition IC50 Values, Cyp40, wild-type Cyp40) was > 2 µM.
Work on `NCCOCCNC(=O)[C@@H]1CCNC(=O)/C=C/C(=O)N2CCC[C@](Cc3ccccc3)(C2)C(=O)N[C@@H](Cc2ccc(-c3ccc(C(CC(=O)O)CC(=O)O)cc3)cc2)C(=O)NCc2ccccc2CC(=O)N1` [Compound B53] yielded an IC50 (CypB; [1]) of 0.5 µM, an IC50 (CypB; [2]) of 1.6 ± 0.6 µM and an IC50 (CypB; [3]) of 1.1 ± 0.5 µM. For the same compound, the IC50 (CypB; [4]) was 1.3 ± 0.8 µM, the IC50 (CypB; [5]) was 1.1 µM and the IC50 (CypB; [6]) was 1.1 µM. For the same compound, the IC50 (CypB; [7]) was 1.1 µM, the IC50 (NKTR; [8]) was > 50 µM and the IC50 (NKTR; [9]) was > 50 µM. The IC50 (NKTR; [10]) was > 50 µM, the IC50 (NKTR; [11]) was > 50 µM and the IC50 (NKTR; [12]) was > 50 µM. For the same compound, the IC50 (NKTR; [13]) was > 50 µM, the IC50 (CypA; Independent replicate 1, read-out: IC50 CypA) was 3 ± 2 µM and the IC50 (CypA; [14]) was 3 ± 1 µM. The IC50 (CypA; [15]) was 4 ± 2 µM, the IC50 (CypA; [16]) was 4 ± 1 µM and the IC50 (CypA; [17]) was 3.4 µM. For the same compound, the IC50 (CypG; [18]) was ~50 µM, the IC50 (CypG; [19]) was > 50 µM and the IC50 (CypG; [20]) was > 50 µM. The IC50 (CypG; [21]) was > 50 µM, the IC50 (CypG; [22]) was > 50 µM and the IC50 (CypG; [23]) was > 50 µM. For the same compound, the IC50 (CypC; [24]) was > 50 µM, the IC50 (CypC; [25]) was > 50 µM and the IC50 (CypC; [26]) was > 50 µM. The IC50 (CypC; [27]) was > 50 µM, the IC50 (CypC; [28]) was > 50 µM and the IC50 (CypC; [29]) was > 50 µM. For the same compound, the IC50 (CypE; [30]) was 0.6 ± 0.3 µM, the IC50 (CypE; [31]) was 0.9 ± 0.3 µM and the IC50 (CypE; [32]) was 0.6 ± 0.2 µM. The IC50 (CypE; [33]) was 1.1 ± 0.6 µM, the IC50 (CypE; [34]) was 0.8 µM and the IC50 (CypH; [35]) was > 50 µM. For the same compound, the IC50 (CypH; [36]) was > 50 µM, the IC50 (CypH; [37]) was > 50 µM and the IC50 (CypH; [38]) was > 50 µM. For the same compound, the IC50 (CypH; [39]) was > 50 µM, the IC50 (CypH; [40]) was > 50 µM and the IC50 (Cyp40; [41]) was > 50 µM. For the same compound, the IC50 (Cyp40; [42]) was > 50 µM, the IC50 (Cyp40; [43]) was > 50 µM and the IC50 (Cyp40; [44]) was > 50 µM. The IC50 (Cyp40; IC50 Cyp40, prolyl-isomerase inhibition, 5 nM cyclophilin) was > 50 µM and the IC50 (Cyp40; [45]) was > 50 µM.
